What was measured:
[1] = tested on: cathepsins L and B in MDA-MB-231 cells; assay: Cathepsin labeling in MDA-MB-231 cells by SDS-PAGE and western blotting; assay type: cell-based, human; settings: MDA-MB-231 cells
Description: Low passage MDA-MB-231 cells were seeded on 12-well plates (200 000 cells per well per 1 mL of medium) and cultured in Dulbecco’s Modification of Eagle’s Medium (DMEM) supplemented with 10% fetal bovine serum, 2 mM of L-glutamine, 100 units per mL penicillin and 100 μg mL^–1 streptomycin. […] To control for non-specific binding, the cells were preincubated with E64d (25 μM) for 2 hours prior to probe addition. At various time points, the medium was aspirated and the cells were gently washed twice with 1 mL of Dulbecco’s Phosphate-Buffered Saline (DPBS) and then trypsinized, harvested and centrifuged for 10 min (500 × g). The supernatants were removed by aspiration and the pellets washed with 1 mL of DPBS and centrifuged (5 min, 500 × g). The supernatants were again removed and the pellets solubilized in 100 μL 1× SDS/DTT and then boiled for 5 min. Each sample was then cooled to room temperature and sonicated (Branson Sonifier 250, duty cycle: 50, output control: 5, cycles: 5) and then 30 μL was loaded on 4–12% Bis-Tris Plus gels and run for 30 min at 200 V with a SDS-PAGE Standards/Broad Range ladder. Proteins were transferred to a 0.2 μm nitrocellulose membrane for 1 hour at 10 V and then Ponceau staining was used to verify equal loading. Membranes were blocked with 2.5% BSA in Tris-buffered saline/0.1% v/v Tween 20 (TBS-T) for 1 hour at room temperature. Cathepsins L and B were detected by primary goat anti-hCathepsin L (R&D, AF952, 0.2 mg mL^–1, 1 : 2000) and goat anti-hCathepsin B (R&D, AF953, 0.2 mg mL^–1, 1 : 1000) antibodies, respectively, followed by incubation with a secondary antibody (IRDye® 800CW, LI-COR, donkey anti-goat, 1 : 10 000). The membranes were incubated with primary antibodies for 2 hours, and with (fluorescent) secondary antibodies for 30 min (both in TBS-T at room temperature). The fluorescence was read at 700 nm (Cyanine5; excitation 685 nm) and 800 nm (secondary antibody; excitation 785 nm) using an Odyssey fluorescence imaging system (LI-COR). The images were analyzed using Image Studio software.

[2] = tested on: cathepsin B in MDA-MB-231 cells; assay: Weighted colocalization of probe with cathepsin B antibody, confocal microscopy; assay type: cell-based, human; settings: CatB ab (8h), 1 μM probe
Description: Glass coverslips 15 mm in diameter were placed in 12-well plates and coated with poly-D-lysine (500 μL, 1 mg mL^–1 in water, Specialty Media) for 30 minutes. The poly-D-lysine was aspirated and the coverslips were washed twice with sterile water and air-dried. Next, low passage MDA-MB-231 cells in DMEM (100 000 cells per mL) were added to wells (1 mL per well) and allowed to attach for 2 hours. Cells were then treated with Cy5-labeled probes (1 μM) for 8 or 24 hours. The control cells were preincubated with E64d for 2 hours. After various incubation times, the medium was removed and the cells were gently washed twice with DPBS (1 mL each). The cells were then fixed with ice-cold methanol (500 μL per well) for 15 minutes at –20 °C. […] Cathepsins L and B were detected by primary goat anti-hCathepsin L (R&D, AF952, 0.2 mg mL^–1, 1 : 200) and goat anti-hCathepsin B (R&D, AF953, 0.2 mg mL^–1, 1 : 80), respectively, in 3% BSA in DPBS (with 0.5% Triton-X, v/v) for 2 hours at room temperature. […] Next, the cells were washed twice with DPBS, and coverslips were mounted using Vectashield mounting medium fluorescence containing DAPI (Vector Lab. H-1000). […] All images were acquired in .tiff format in MetaMorph software or in .lsm format in ZEN software and analyzed using ImageJ and ZEN software. […]

cathepsin L = target: T1, cathepsin L (Homo sapiens, UniProt P07711); assay: kobs/I of activity-based probes, cathepsin L; assay type: biochemical; settings: Fig. 6A; pseudo-first order, probe at least 5-fold excess over cathepsin, 100 μM ACC substrate; pH 5.5, 37 °C; triplicate, SD below 20%
T1 construct: made in house
T1 sequence (P07711 114-333): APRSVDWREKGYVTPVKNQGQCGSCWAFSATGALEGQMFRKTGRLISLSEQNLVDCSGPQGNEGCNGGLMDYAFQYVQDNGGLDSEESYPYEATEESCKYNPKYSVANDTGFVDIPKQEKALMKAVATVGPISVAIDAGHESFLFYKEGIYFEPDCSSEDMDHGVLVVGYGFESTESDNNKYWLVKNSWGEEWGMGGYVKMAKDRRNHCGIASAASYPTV
Description: All kinetic experiments were performed using fMax (Molecular Devices) and CLARIOStar (BMG LABTECH) spectrofluorimeters operating in kinetic mode using 96-well plates. ACC-labeled substrates were screened using 355 nm and 460 nm wavelengths (excitation and emission, respectively). […] The buffer was prepared at room temperature and the enzyme kinetic studies were performed at 37 °C.
For the kinetic studies, five recombinant human cathepsins (B, L, V, K and S) were expressed and purified and active site titrated using an E64 inhibitor. The kobs/I parameter was measured under pseudo-first order kinetic conditions, as described.[40] The cathepsin of interest was mixed with various concentrations of probe (at least 5-fold excess over cathepsin) and 100 μM ACC-fluorescence substrate. The experiments were repeated at least three times, and the results are presented as an average. The SDs were below 20%.

In the case of “Cy5-6-ahx-His-DThr-Phe(F5)-Cys(Bzl)-AOMK [MP-cL3]”, the “incubation time up to which only cathepsin L is labeled (no labeling of cathepsin B)” value ([1]; 1 μM probe) is reported as “up to 8 hours”, the “incubation time after which probe labeling is detectable in cells” value ([1]; 1 μM probe, 0–18 hours) is reported as 1 h and the “incubation time up to which only cathepsin L is labeled” value ([1]; 5 μM probe, 2-16 hours) is reported as “up to two”. For the same substance, the weighted colocalization coefficient ([2]; single cells analysis, 68 single cells) was 0.635, the weighted colocalization coefficient ([2]; whole pictures analysis, 7 images) was 0.646 and the “kobs/I Cath-L” value (cathepsin L) was 322,000 M^-1s^-1.

From article PMC5896380, “Selective imaging of cathepsin L in breast cancer by fluorescent activity-based probes” (Chemical Science, 2018)
